This is an account of results in publication PMC7203344, “Sirtuin 1 Inhibiting Thiocyanates (S1th)—A New Class of Isotype Selective Inhibitors of NAD^+ Dependent Lysine Deacetylases” (Frontiers in Oncology, 2020).

Data set [1] in a line: Solubility as found in testing. It is filed as physicochemical. Conditions: compared with earlier hits such as S1th 7.
Data set [2] has as its system MCF7 cells. Briefly: Cell proliferation assay with MCF7 cells. Format: cell-based, human. Conditions: concentrations as for HeLa. On the procedure:
1.5 × 10^4 cells/well were seeded in 24-well plates and grown in DMEM 10% in presence of DMSO, 20 μM EX-527, 12 μM S1th 13, 20 μM S1th 12, or 30 μM S1th 10. The growth media containing the drugs was replaced every 48 h. Cells were collected and counted at the indicated times starting 24 h after seeding (0, 24, 48, 72, 96, and 120 h). The experiment was performed twice in duplicates.

In the next data set the test system is HeLa cells. As to the kind of experiment: Colony forming assay with HeLa cells. It is filed as cell-based, human. Conditions: 7–10 days; concentrations as in proliferation assay. The protocol:
(§1) For colony assays, 50 cells per well were seeded in 6-well plates and grown in the same conditions with the same drug concentrations as for the proliferation assays. In this case, the growth media containing the drugs was replaced every 48 h. After 7–10 days, when isolated colonies were formed, wells were washed with PBS, and cells were fixed with cold methanol for 5 min at RT. Cells were stained with crystal violet for 10 min at RT and washed with H2O. Images were acquired using iBright (Thermo Fisher Scientific, MA, USA). For quantification, cells of each well were resuspended in 10% glacial acetic acid to dissolve crystal violet whose levels were monitored by measuring absorbance at 590 nm. The experiment was performed in duplicates.

Data set [3] deals with γH2AX/H2AX levels in MEF cells. As to the kind of experiment: γH2AX level determination by western blot. The conditions noted are these: 48 h, EX-527 10 μM, S1th 10 30 μM, S1th 12 20 μM, S1th 13 12 μM, SirReal2 30 μM. It is filed as cell-based, mouse. The protocol: Sirt1 WT and KO MEFS cells were treated with 10 μM EX-527, 12 μM S1th 13 (6), 20 μM S1th 12 (5), 30 μM S1th 10 (7) and 30 μM SirReal2 [Sirt2 inhibitor, synthesized according to ([62])] for 48 h. Oxidative stress was induced using 10 μM Camptothecin 2 h. Whole-cell extracts were performed according to the Dignam protocol ([63]). Primary antibodies used for the western blot were anti-H2AX and anti-γH2AX (ab11175 and ab2893 resp., Abcam, UK). Densiometric analysis of the western blots was performed with Quantity One software (Bio-Rad Laboratories, Inc., USA).

Data set [4] has as its system MCF7 cells. Briefly: Colony forming assay with MCF7 cells. Format: cell-based, human. Conditions: concentrations as for HeLa. On the procedure: as §1
The target in another data set is T1, human Sirt5 (Homo sapiens, UniProt Q9NXA8).
T1 construct: Recombinant human Sirt5_37−310 was purchased readily in Tris Buffer; purchased Enzo Life Sciences (NY, USA)
T1 sequence (Q9NXA8 37-310): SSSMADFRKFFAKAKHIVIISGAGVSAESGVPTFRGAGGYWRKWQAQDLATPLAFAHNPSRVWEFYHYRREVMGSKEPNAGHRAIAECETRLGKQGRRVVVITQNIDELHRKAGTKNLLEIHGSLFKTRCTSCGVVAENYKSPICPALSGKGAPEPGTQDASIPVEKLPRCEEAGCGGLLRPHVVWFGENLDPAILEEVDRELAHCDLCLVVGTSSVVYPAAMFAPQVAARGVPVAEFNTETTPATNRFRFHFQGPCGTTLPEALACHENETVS
As to the kind of experiment: Homogeneous ZKsA-based fluorescence assay for Sirt5. It is filed as biochemical. The conditions noted are these: inhibition tested @ 10 μM. On the procedure: Recombinant human Sirt5_37−310 was purchased readily in Tris Buffer [25 mM Tris, 100 mM NaCl, 5 mM DTT, 10% glycerol (v/v)] from Enzo Life Sciences (NY, USA). Human Sirt3_118−395 was expressed and purified as described previously ([54]). For expression of human Sirt1_134−747 and Sirt2_56−356 chemically competent cells of E. coli BL21 Star (DE3) were transformed with the expression vectors pET30S-hSirt1_134−747 or pET30S-hSirt2_56−356. Bacteria were grown at 37°C in 2×YT medium supplemented with 50 μg·mL^−1 of kanamycin to an OD600 of 0.6. Then isopropyl-β-D-1-thiogalactopyranoside (IPTG) was added to a final concentration of 1 mM to induce gene expression. After further cultivation at 20°C for 12 h, the cells were harvested by centrifugation for 15 min at 5,000 g. The cells were resuspended in lysis buffer [100 mM Tris/HCl buffer at pH 8.0, 150 mM NaCl and 10% (v/v) glycerol] and disrupted by ultrasonication (Branson Digital Sonifier 250) at 70% amplitude for 10 min (3 s working, 10 s pause). The crude extract was cleared by centrifugation at 100,000 g for 1 h, and the supernatant was loaded onto a Strep-Tactin Superflow cartridge (5 ml bed volume, IBA Lifescience, Germany). Target proteins were eluted with lysis buffer containing 5 mM D-Desthiobiotin (IBA Lifescience, Germany) and further separated by size-exclusion chromatography (Superdex S200 26/60, GE Healthcare, IL, USA) equilibrated in Tris/HCl buffer (20 mM, 150 mM NaCl, pH 8.0). Pure protein was concentrated by ultrafiltration, flash-frozen in liquid nitrogen and stored at −80°C until further use. Identity as well as purity were verified by SDS-PAGE ([55]) and protein concentration was determined by the bicinchoninic acid (BCA) method, using bovine serum albumin (BSA) as a standard ([56]). Deacetylase activity was confirmed to be NAD^+-dependent and could be inhibited with the physiological sirtuin inhibitor nicotinamide.
Inhibition of Sirt5 was measured using a general procedure described before with small modifications ([58]). Sirt5 was purchased from Enzo Life Science (NY, USA) and used as received. Z-Lys(succ)-aminomethyl coumarin (ZKsA) was used as a substrate for Sirt5 mediated desuccinylation. In black 384-well non-binding plates (Greiner Bio-One, Monroe, NC) Sirt5 was mixed with 2 μL of ZKsA (1 mM stock solution in assay buffer [(50 mM Tris·HCl, 137 mM NaCl, 2.7 mM KCl, 1 mM MgCl2, pH 8.0, and 0.1% PEG8000), 100 μM final assay concentration], 1 μL of Inhibitor dissolved in DMSO or DMSO as a control [final DMSO concentration 5% (v/v)], 2 μL NAD^+ (5 mM stock solution in assay buffer, final assay concentration 500 μM) and filled up to a total volume of 20 μL with assay buffer. The mixture was incubated for 1 h at 37°C and 140 rpm before 4 μL of trypsin solution (50 mM Tris, 100 mM NaCl, pH 8.0, 6 mg/mL trypsin buffer, 1 mg/mL final assay concentration) was added to stop the enzymatic reaction. After 2 min of incubation at 37°C and 140 rpm fluorescence intensity was detected as described above. Sirt5 concentration was adjusted to 15–30% substrate conversion. A negative control without enzyme and a positive control containing AMC instead of ZKsA were performed as well. Inhibition was calculated in % in relation to a DMSO control and was determined in triplicates.

As for `COc1ccc(SC#N)cc1OCC(=O)N(CCC#N)CCC#N` [S1th 12], the “solubility (in words)” value in data set [1] is reported as “better soluble”. Also, in the data set with MCF7 cells [2], the “cell proliferation of MCF7 cells” value was “only have a mild effect”. For the same compound, the “colony forming of HeLa cells” value with HeLa cells is “only mild effects”. Further, the “γH2AX/H2AX levels without Camptothecin” value in data set [3] is given as “decreased”. Also, the “colony forming capabilities of MCF7 cells” value (shortened to “colony forming capabilities”) with MCF7 cells [4] was “barely affected”. The inhibition at 10 µM against human Sirt5 is < 10%.
For the compound `N#CSc1cccc(NC(=O)[C@H]2CC=CC[C@H]2C(=O)O)c1` [S1th 10], the “cell proliferation of MCF7 cells” value in the data set with MCF7 cells [2] is “most effective”. Further, in the data set with HeLa cells, the “colony forming of HeLa cells” value is reported as “only mild effects”. Besides, the “γH2AX/H2AX levels without Camptothecin” value in data set [3] is reported as “decreased”. The “colony forming capabilities” value with MCF7 cells [4] is recorded as “slightly decreased”. The inhibition at 10 µM against human Sirt5 was < 10%.
Take `CCCCNC(=O)Nc1cccc(SC#N)c1` [S1th 11]: the “solubility (in words)” value in data set [1] is on record as “better soluble”. Also, the inhibition at 10 µM against human Sirt5 is < 10%.
Consider `N#CSc1cc(SC#N)c(N)nc1N` [PR-619, reference compound], for which, on human Sirt5, at 10 µM the inhibition was 28%.
Regarding `N#CSc1cccc(NS(=O)(=O)c2ccc3c(c2)OCCO3)c1` [S1th 13], the “solubility (in words)” value in data set [1] is given as “better soluble”. In addition, the “cell proliferation of MCF7 cells” value with MCF7 cells [2] was “most effective”. The “colony forming of HeLa cells” value in the data set on HeLa cells is listed as “almost as potent as EX-527”. Further, in data set [3], the “γH2AX/H2AX levels without Camptothecin” value is on record as “decreased”. In addition, the “colony forming capabilities” value in the data set on MCF7 cells [4] was “significantly decreased”. Further, the inhibition at 10 µM against human Sirt5 is < 10%.
